In US9365833B2, “Leucine zipper variant and use thereof” (Samsung Electronics Co., Ltd., priority 2013, dated 2016):

Test system: skin cancer cell line A-431
Assay: cancer cell growth inhibition (CellTiter-Glo cell viability)
Type: cell-based
Settings: mutant p53 expression, up to 15 μM, 5 days; FIG. 11
Experimental: The leucine zipper variant p53LZ2 was evaluated for anticancer activity against the osteosarcoma cell line SJSA-1 (ATCC), the breast cancer cell line MCF7 (ATCC), and the skin cancer cell line A-431 (ATCC), the first two expressing wild-type p53 and the other expressing mutant p53.
Each of the cell lines was seeded at a density of 1×10^3 cells/well in 10% FBS-supplemented RPMI (Gibco) or DMEM (Gibco) into 96-well plates. The next day, the leucine zipper variant (TAT-p53LZ2; TAT (RKKRRQRRR; SEQ ID NO: 5) linked to the N-terminus of p53LZ2, constructed in Example 1) or Nutlin-3 (Sigma) was added at a concentration of 0, 0.59, 0.88, 1.32, 1.98, 2.96, 4.44, 6.67, 10, or 15 μM (increasing by 1.5 fold) in an amount of 100 μL to each well before the cells were cultured for 5 days at 37° C. in an 5% CO2 incubator. To each well was added 80 μL of CellTiter-Glo reagent (Promega), followed by measuring luminescence on EnVision Multilabel Reader (PerkinElmer) to examine cell viability.

## COc1ccc(C2=N[C@@H](c3ccc(Cl)cc3)[C@@H](c3ccc(Cl)cc3)N2C(=O)N2CCNC(=O)C2)c(OC(C)C)c1 [Nutlin-3]
  cytotoxicity in A431 cell line: failed to exert cytotoxicity
